Experimental findings from US12152060B2, “Interleukin-2 variants and methods of uses thereof” (Cugene Inc, priority 2018, dated 2024) are described below.

The target in experiment [1] is T1, non-covalent complex of IL-2Rβ-ECD (NP_000869) and γc-ECD (NP_000197) (Homo sapiens, UniProt P14784+P31785).
T1 construct: non-covalent complex of IL-2Rβ-ECD (NP_000869) and γc-ECD (NP_000197)
T1 sequence (P14784 27-240 limits assumed): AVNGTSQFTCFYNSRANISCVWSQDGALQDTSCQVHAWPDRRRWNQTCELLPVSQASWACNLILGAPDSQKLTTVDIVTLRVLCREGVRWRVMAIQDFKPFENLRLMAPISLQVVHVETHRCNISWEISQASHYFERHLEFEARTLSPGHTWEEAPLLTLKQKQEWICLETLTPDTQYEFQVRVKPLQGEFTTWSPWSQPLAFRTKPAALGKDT
T1 sequence (P31785 23-262 limits assumed): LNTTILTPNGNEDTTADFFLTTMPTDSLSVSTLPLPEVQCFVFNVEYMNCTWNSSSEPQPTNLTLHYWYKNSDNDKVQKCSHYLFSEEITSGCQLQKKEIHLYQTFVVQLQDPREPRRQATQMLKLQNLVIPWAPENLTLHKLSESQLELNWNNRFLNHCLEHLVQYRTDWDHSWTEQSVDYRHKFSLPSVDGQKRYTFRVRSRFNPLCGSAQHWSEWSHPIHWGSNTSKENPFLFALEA
Briefly: ELISA binding to IL-2Rβ and γc complex. On the procedure:
Briefly, non-covalent complex of IL-2Rβ-ECD (NP_000869) and γc-ECD (NP_000197) through heterodimeric Fc chains was coated onto the wells of Nunc Maxisorp 96-well microplates at 2 μg/well. After overnight incubation at 4° C. and blocking with superblock (ThermoFisher), 3-fold serial dilutions of IL-2 Fc fusion proteins starting at either 100 or 270 nM were added to each well at 100 μl/well. Following a one-hour incubation at room temperature, biotin mouse anti-human IL-2 Ab (BD BioSciences) at 1 μg/ml was added to each well followed by incubation with HRP-Avidin (ThermoFisher) at 1 μg/ml for 1 hour. Wells were thoroughly aspirated and washed three times with PBS/0.05% Tween-20 following each step. Finally, 100 μl TMB substrate was added to each well; the plate was developed at room temperature in the dark for 10 minutes, and 100 μl/well of stop solution (2N Sulfuric acid, Ricca Chemical) was added. Absorbance was determined at 450 nm; curves were fit using Prism software (GraphPad) and illustrated in FIG. 11E.
Background: In an ELISA, binding on a coated surface is turned into a signal by an enzyme label.

The test system of experiment [2] is STAT5 phosphorylation in CD4+ Treg cells (CD4+/Foxp3+/CD25high). In words: STAT5 phosphorylation in CD4+ Treg cells, human PBMC assay by FACS. The format is cell-based. Particulars: pSTAT5, Treg versus Tconv. The text has this:
Single amino acid substitutions were introduced to IL-2 at positions corresponding to amino acids interacting with receptor subunit(s) β or γ or By. These substitutions were aimed to reduce IL-2 signaling capacity through the intermediate affinity IL-2Rβγ complex and confer signaling specificity from the high affinity IL-2Rαβγ. IL-2 variants containing single amino acid substitutions were examined for their ability to differentially stimulate STAT5 phosphorylation in CD4 positive Treg and Tconv cells. STAT5 is known to be involved in the downstream signaling cascade upon IL-2 binding to the transmembrane IL-2 receptors. The phosphorylation of STAT5 in defined lymphocyte subpopulations was measured using fresh human peripheral blood mononuclear cells (PBMC) and the forkhead transcription factor FOXP3 was used to identify the Treg population in FACS analysis.
Briefly, human PBMC were isolated by Ficoll-Hypaque centrifugation from the buffy coat of a healthy donor. PBMC were starved in serum-free MACS buffer at 4° C. for 1 hour. 2×10^5 PBMC were then treated with serial dilutions of test compounds for 30 min at 37° C. Cells were fixed and permeabilized with Foxp3/Transcription Factor Staining Buffer Set (EBIO) by incubating with 1× Foxp3 fixation/permeabilization working solution for 30 minutes and washing with 1× permeabilization buffer. Cells were additionally fixed with Cytofix buffer and permeabilized with Perm Buffer III (BD Biosciences) and then washed. After blocking Fc receptors by adding human TruStain™ FcX (1:50 dilution), cells were stained with a mixture of anti-CD25-PE, anti-FOXP3-APC, anti-pSTAT5-FITC, and anti-CD4-PerCP-Cy5.5 antibodies at concentrations recommended by the manufacturer for 45 minutes at room temperature. Cells were collected by centrifugation, washed, resuspended in FACS buffer, and analyzed by flow cytometry. The flow cytometry data was gated into CD4+/Foxp3+/CD25^high and CD4+/Foxp3−/CD25^low groups for the Treg and CD4 conventional T cell subsets, respectively. Data are expressed as a percent of pStat5 positive cells in gated population.
On the technique in general: Flow cytometry measures light scatter and fluorescence of single cells or particles in a stream.

In experiment [3] the test system is STAT5 phosphorylation in CD4+/Foxp3+/CD25+ Treg, CD4+/Foxp3-/CD25+ CD4 effector and CD4+/Foxp3-/CD25- CD4 naive T cell subsets. Briefly: STAT5 phosphorylation in three CD4+ T cell subsets, human PBMC. The format is cell-based. To be noted: FIG. 9. On the procedure: After human PBMC Cells were treated with serial dilutions of test compounds, fixed and permeabilized, washed, and stained with a mixture of anti-CD25-PE, anti-FOXP3-APC, anti-pSTAT5-FITC, and anti-CD4-PerCP-Cy5.5 antibodies, the flow cytometry analysis was gated into CD4+/Foxp3+/CD25+, CD4+/Foxp3−/CD25+, CD4+/Foxp3−/CD25− groups for the Treg, CD4 effector, and CD4 naive T cell subsets, respectively. Data are expressed as a percent of pSTAT5 positive cells in gated population and illustrated in FIG. 9.

Turning to “P-0511: Fc fusion protein of IL-2 variant L19H/S125I/Q126E; SEQ ID NO: 198”, the “EC50, binding to IL-2Rβ and γc complex (ELISA)” value in experiment [1] was “did not show appreciable binding”. Moreover, the “window for selective activation of Treg cells over CD4+ Tconv cells (in words)” value in experiment [2] is on record as “further widened the Treg selectivity window”. For the same substance, the “pSTAT5 potency and selectivity in Treg, Teff and naive CD4 T cell subsets (in words)” value is “preferential activation of Treg over Teff” in experiment [3]; “superior to both Benchmark-2 and -3” in experiment [3] (listed as P-511).
